This is an account of results in patent publication US20150018301A1, “LRRK-2-Mediated Neuronal Toxicity” (THE JOHNS HOPKINS UNIVERSITY, priority 2009, published 2015).

The conditions of data set [1]: from literature; cited from earlier work.
Data set [2] has as its target T1, LRRK2 G2019S (Homo sapiens, UniProt Q5S007, G2019S). Kind of data set: In vitro kinase assay: G2019S LRRK2-mediated MBP phosphorylation. The data set is classed as biochemical. The following applies: for IC50: Table 2, mean of three experiments; for effect on G2019S LRRK2 MBP phosphorylation: dose-response. The method, then: (§1) Transfection was performed by using Fugene HD reagent (Roche Applied Science) according to the manufacturer's instruction. For purification of recombinant LRRK1 and LRRK2 proteins, ACTA Purifier (GE Healthcare) FPLC system was used.
(§2) Resulting lysates were rotated at 4° C. for 30 min followed by centrifugation at 20,000×g for 15 min. The supernatants were injected into a GSTrap FF column pre-equilibrated with PBS at 0.5. mL/min flow after filtration using a 0.2 μm syringe filter (Corning). The bound proteins were eluted with buffer containing 10 mM GSH (Sigma), 150 mM NaCl, and 50 mM Tris-HCl (pH 8.0).
(§3) The in vitro kinase assay was performed as previously described. […] Recombinant LRRK2 and MBP or CST-4E-BP1 were combined before the kinase reaction. LRRK2 autophosphorylation is LRRK2 itself phosphorylation and MBP or GST-4E-BP1 phosphorylation is induced by LRRK2. After the kinase reaction, combined LRRK2 and MBP or GST-4E-BP1 were loaded on SDSPAGE and phosphorylated LRRK2 and MBP or GST-4E-BP1 could be detected separately an a single gel. Recombinant proteins and inhibitors were incubated at 30° C. in kinase assay buffer containing 20 mM Hepes (pH 7.4), 5 mM EGTA, and 20 mM β-glycerol phosphate. 0.5 μg MBP (Upstate) or 0.5 μg GST-4B-BP1, 50 μM ATP (Sigma), 20 mM MgCl2, and 1 μCi [γ-32P] ATP (PerkinElmer) was added after 5 min. The reaction was performed at 30° C. to reduce non-specific 32P incorporation for 15 min and terminated by the addition of 5×Laemmili sample buffer. […] Gels were stained by coomassie brilliant blue after fixation with 10% acetic acid and 40% methanol and then exposed to a Phosphoimager. Data were analyzed by ImageQuant 6.0 software.
(§4) To calculate the IC50 value, a dose-response curve was constructed and non-linear regression analysis using the equation for a sigmoid plot.

In another data set the target is LRRK1 WT (Homo sapiens, UniProt Q38SD2). Kind of data set: In vitro kinase assay: LRRK1 autophosphorylation. Type of data set: biochemical. The following applies: for IC50: Table 3, mean of three experiments.
Sequence of LRRK1 WT (Q38SD2 whole entry): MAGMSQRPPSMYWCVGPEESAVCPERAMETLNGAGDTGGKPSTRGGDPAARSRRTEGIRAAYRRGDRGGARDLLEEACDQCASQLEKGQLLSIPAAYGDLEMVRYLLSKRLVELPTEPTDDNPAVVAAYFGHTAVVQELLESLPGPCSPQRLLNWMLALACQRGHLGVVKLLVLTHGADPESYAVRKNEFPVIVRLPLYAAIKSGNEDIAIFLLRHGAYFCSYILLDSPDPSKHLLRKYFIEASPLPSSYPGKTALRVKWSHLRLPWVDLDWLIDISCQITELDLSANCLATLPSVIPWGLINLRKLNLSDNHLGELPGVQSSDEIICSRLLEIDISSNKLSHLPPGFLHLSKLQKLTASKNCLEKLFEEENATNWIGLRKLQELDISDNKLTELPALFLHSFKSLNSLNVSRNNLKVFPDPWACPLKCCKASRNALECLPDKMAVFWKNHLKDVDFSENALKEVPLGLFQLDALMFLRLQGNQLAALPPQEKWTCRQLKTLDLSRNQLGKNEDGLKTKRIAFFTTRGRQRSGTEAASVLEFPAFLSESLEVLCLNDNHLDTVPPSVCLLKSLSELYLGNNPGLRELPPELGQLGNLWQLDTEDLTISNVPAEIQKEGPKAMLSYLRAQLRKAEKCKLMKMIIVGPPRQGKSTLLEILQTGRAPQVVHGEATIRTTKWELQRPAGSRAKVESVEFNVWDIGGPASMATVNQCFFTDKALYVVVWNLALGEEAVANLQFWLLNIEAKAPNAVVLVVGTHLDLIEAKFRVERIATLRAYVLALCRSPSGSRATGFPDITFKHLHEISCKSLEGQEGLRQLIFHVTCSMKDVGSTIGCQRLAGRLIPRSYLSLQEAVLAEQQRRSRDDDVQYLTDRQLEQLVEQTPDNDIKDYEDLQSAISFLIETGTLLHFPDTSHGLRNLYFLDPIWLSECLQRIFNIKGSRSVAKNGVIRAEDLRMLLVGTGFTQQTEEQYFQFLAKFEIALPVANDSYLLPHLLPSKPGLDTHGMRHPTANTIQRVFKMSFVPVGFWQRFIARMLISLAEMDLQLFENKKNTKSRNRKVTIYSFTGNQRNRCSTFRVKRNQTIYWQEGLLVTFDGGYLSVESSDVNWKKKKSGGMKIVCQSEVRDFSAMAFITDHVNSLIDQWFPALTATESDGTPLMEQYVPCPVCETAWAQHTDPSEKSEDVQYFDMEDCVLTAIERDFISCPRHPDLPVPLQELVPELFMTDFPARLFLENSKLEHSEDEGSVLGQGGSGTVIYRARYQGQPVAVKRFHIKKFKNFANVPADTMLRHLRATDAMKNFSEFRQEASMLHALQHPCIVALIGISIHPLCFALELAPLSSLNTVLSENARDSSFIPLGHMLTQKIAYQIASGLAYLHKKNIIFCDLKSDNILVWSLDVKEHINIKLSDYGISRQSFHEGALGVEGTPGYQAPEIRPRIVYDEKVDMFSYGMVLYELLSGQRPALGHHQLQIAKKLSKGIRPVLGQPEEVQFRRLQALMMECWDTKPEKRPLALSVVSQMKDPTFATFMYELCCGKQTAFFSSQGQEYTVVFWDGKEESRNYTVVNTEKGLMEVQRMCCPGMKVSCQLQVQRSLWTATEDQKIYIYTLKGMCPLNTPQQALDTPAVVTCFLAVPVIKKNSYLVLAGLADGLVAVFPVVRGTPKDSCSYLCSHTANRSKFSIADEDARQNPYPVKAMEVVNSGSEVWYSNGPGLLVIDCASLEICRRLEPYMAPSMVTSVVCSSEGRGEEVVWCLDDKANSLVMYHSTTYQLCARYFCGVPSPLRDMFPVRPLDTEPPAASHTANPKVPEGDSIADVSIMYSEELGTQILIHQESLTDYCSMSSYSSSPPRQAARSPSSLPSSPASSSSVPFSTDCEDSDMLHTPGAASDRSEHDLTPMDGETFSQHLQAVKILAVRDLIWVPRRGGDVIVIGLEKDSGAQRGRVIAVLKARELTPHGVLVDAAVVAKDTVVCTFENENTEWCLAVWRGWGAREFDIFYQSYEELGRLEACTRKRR
Data set [3] relates to HSV-G2019S LRRK2 dopaminergic neurotoxicity. The data set can be described thus: HSV amplicon-based mouse model of LRRK2 dopaminergic neurotoxicity. The data set is classed as in vivo. Conditions: for loss of tyrosine hydroxylase-positive neurons induced by HSV-G2019S LRRK2: 2.5 mg per kg i.p. twice daily, 3 weeks, versus DMSO- and indirubin-injected controls.
The target in data set [4] is T1, LRRK2 G2019S. Kind of data set: In vitro kinase assay: G2019S LRRK2 autophosphorylation. The data set is classed as biochemical. Conditions: for IC50: Table 2, mean of three experiments; for effect on G2019S LRRK2 autophosphorylation: dose-response. The method, then: as §1, §2, §3, §4
Data set [5] relates to C. elegans expressing LRRK2 G2019S in DA neurons. Kind of data set: Transgenic nematode model of LRRK2 G2019S-induced DA neurodegeneration. The data set is classed as in vivo, Caenorhabditis elegans. Conditions: for rescue of DA neurodegeneration: 7 day-old worms; for worms with wild-type DA neurons (4 CEP and 2 ADE): 7-day-old worms, n=90, 48% with 1% DMSO. The method, then:
Nematodes were maintained following the standard procedures. Brenner, S., 771 GENETICS 71-94 (1974). Isogenic worm strains expressing LRRK2, G2019S, UAXX [baInlX; Pdat-1::LRRK2 G2019S, Pdat-1::gfp] were generated via microinjection, integrated into the genome and out-crossed three times. Age-synchronized worms were obtained by treating gravid adults with 2% sodium hypochlorite and 0.5M NaOH to isolate embryos. Lewis, J. A., 48 METHODS CELL BIOL. 3-29 (1995). These embryos were treated with indicated concentrations of LRRK2 kinase inhibitors, which were dissolved in 1% DSMO, for 24 h. at 20° C. with gentle shaking. The worms were then washed and transferred into NGM plates seeded with OP50 bacteria, and incubated as 20° C. The six anterior DA neurons (4 CEP and 2 ADE neurons) of 30 animals/trial were examined for neurodegeneration when the animals were 7 days old. A total of 90 animals for each treatment were analyzed (3 trials of 30 animals/trial). […] See Hamamichi et al., 105(2) PROC. NATL. ACAD. SCI. USA 728-33 (2008); and Cao et al, 25 J. NEUROSCI. 3801-12 (2005). For each trial, 30 worms were transferred into a 2% agarose pad, immobilized with 2 mM levamisole, and analyzed using Nikon Eclipse E800 epifluorescence microscope equipped with Endow GFP HYQ filter cube (Chrom Technology, Rockingham, Vt.). Images were captured with a Cool Snap CCD camera (Photometrics, Tucson, Ariz.) driven by MetaMorph software (Universal Imaging, West Chester, Pa.).
To determine whether the LRRK2 kinase inhibitors protect against LRRK2-induced neurodegeneration in vivo, the LRRK2 kinase inhibitors were tested in the C. elegans model of LRRK2 G2019S-induced neurodegeneration described above. The DA transporter (dat-1) was used to direct expression of LRRK2 G2019S in DA neurons.

SMILES strings stand for the structures.

T1 sequence (Q5S007 whole entry G2019S): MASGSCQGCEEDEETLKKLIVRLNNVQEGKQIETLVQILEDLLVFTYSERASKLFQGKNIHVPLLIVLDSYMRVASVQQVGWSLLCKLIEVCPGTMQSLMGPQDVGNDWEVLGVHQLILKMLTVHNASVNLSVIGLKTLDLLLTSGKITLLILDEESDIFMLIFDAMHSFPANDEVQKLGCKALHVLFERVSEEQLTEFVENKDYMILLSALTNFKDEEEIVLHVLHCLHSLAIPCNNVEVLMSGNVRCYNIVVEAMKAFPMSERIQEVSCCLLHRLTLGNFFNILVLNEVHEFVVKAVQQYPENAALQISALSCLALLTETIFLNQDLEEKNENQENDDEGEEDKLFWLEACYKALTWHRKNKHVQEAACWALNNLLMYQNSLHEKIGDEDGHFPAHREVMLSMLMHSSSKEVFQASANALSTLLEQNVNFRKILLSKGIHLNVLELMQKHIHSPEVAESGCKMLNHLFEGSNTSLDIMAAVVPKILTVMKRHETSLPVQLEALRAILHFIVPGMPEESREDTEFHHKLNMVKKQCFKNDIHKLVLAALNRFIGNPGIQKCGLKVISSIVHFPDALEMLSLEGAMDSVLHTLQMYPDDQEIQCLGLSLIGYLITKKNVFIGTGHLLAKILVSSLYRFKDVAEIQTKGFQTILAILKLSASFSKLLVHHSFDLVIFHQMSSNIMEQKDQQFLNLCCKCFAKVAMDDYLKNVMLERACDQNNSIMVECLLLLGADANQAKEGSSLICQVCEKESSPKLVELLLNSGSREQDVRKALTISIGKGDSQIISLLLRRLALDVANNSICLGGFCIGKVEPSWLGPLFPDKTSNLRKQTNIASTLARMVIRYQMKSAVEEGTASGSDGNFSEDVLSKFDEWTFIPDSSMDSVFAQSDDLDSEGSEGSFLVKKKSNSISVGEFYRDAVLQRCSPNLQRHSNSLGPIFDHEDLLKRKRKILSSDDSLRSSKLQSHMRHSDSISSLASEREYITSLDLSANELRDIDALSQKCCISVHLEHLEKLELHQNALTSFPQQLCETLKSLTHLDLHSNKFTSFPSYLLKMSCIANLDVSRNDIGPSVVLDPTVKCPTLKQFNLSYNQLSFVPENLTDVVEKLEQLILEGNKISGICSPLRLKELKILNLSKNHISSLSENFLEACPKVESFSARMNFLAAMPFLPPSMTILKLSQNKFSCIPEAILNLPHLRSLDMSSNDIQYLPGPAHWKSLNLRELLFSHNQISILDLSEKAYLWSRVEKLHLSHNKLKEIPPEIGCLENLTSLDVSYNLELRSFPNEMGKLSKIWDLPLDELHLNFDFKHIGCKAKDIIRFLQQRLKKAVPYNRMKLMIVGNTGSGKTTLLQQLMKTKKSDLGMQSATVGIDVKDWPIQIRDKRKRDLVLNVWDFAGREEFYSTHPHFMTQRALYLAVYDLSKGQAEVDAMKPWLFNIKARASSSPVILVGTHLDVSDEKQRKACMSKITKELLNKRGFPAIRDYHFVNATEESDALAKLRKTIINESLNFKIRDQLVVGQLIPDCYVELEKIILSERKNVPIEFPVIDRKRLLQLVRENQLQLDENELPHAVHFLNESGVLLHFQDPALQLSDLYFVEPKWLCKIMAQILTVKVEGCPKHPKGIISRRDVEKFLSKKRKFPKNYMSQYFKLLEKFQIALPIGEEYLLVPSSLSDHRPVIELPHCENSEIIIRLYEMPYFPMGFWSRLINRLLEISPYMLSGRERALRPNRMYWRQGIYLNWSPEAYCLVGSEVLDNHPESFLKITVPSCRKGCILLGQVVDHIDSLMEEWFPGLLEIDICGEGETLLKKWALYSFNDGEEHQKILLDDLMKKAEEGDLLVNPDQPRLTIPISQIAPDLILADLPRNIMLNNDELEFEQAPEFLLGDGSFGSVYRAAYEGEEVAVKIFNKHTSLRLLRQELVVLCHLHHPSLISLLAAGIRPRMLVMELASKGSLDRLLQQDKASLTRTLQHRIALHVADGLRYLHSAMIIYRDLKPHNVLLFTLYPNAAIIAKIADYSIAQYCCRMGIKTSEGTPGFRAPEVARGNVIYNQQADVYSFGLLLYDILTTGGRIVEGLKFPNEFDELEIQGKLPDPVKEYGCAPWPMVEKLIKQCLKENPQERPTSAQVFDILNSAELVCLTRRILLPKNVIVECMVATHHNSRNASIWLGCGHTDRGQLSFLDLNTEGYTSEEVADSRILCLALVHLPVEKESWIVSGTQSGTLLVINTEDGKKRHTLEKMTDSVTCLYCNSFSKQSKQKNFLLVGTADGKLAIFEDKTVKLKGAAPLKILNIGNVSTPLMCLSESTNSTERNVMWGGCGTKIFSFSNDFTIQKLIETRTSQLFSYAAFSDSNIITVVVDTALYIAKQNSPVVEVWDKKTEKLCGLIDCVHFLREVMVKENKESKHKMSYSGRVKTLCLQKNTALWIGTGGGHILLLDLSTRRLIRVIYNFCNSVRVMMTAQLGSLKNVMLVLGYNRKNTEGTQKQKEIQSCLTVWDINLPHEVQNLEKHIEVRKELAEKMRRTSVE

In general, IC50 refers to the midpoint of a concentration-inhibition curve. Low readings indicate inhibition by little substance, high ones a need for much substance. For the molecule `O=C1Nc2ccccc2/C1=C1/Nc2ccccc2/C1=N\O` [Inhibitor 70, Indirubin-3-monooxine], the “crossing of the blood-brain barrier” value in data set [1] is “known to cross the blood-brain barrier”. In addition, on LRRK2 G2019S [2], the IC50 is 1310 nM and the “effect on G2019S LRRK2 MBP phosphorylation” value is “inhibited”. For the same molecule, on LRRK1 WT, the “effect on LRRK1 autophosphorylation” value is on record as “inhibited” and half-maximal inhibition (IC50) required 790 nM. The “loss of tyrosine hydroxylase-positive neurons induced by HSV-G2019S LRRK2” value in data set [3] was “attenuated”. Further, on LRRK2 G2019S [4], the concentration for half-maximal inhibition (IC50) amounted to 380 nM and the “effect on G2019S LRRK2 autophosphorylation” value was “inhibited”.

As for `Cc1ccc(NC(=O)c2cccc(N(C)C)c2)cc1NC(=O)c1ccc(O)cc1` [Inhibitor 53, ZM336372], the “effect on G2019S LRRK2 MBP phosphorylation” value on LRRK2 G2019S [2] is “no effect”. Also, the “effect on LRRK1 autophosphorylation” value at LRRK1 WT is “minimal to no effect”. In data set [5], the “rescue of DA neurodegeneration” value is “failed to rescue”. Further, the “effect on G2019S LRRK2 autophosphorylation” value on LRRK2 G2019S [4] is “no effect”.

`O=C1Nc2ccc(I)cc2/C1=C/c1cc(Br)c(O)c(Br)c1` [Inhibitor 56, GW5074]: in data set [1], the “crossing of the blood-brain barrier” value is “known to cross the blood-brain barrier”. Moreover, the IC50 came out at 880 nM against LRRK2 G2019S [2], 730 nM at LRRK1 WT and 220 nM at LRRK2 G2019S [4]. Moreover, the “worms with wild-type DA neurons (4 CEP and 2 ADE)” value is 66% in data set [5] (10 μM) and 67% in data set [5] (25 μM). Further, the “rescue of DA neurodegeneration” value in data set [5] is “protect worms from neurodegeneration”. In addition, the “loss of tyrosine hydroxylase-positive neurons induced by HSV-G2019S LRRK2” value in data set [3] is “attenuated”. Moreover, the “increase in ILB4-positive cells in striatum and substantia nigra pars compacta” value in data set [3] (G2019S LRRK2 mice, 2.5 mg/kg i.p. twice daily) is “prevented”. Moreover, in data set [3] (HSV-LRRK2 G2019S mice, 2.5 mg/kg i.p. twice daily), the “reduction in the density of tyrosine hydroxylase-positive fibers (striatum)” value is given as “rescued”.
